Blank lines part the entries; values can stand above or below the molecule they belong to. Non-standard residues stand in square brackets, D forms with d. Residues, ends and D or L forms follow the SMILES beside them. *: point of attachment. FITC = O=C1OC2(c3ccc(O)cc3Oc3cc(O)ccc32)c2ccc(NC(=S)*)cc21; Phe(4-Me) = Cc1ccc(C[C@H](N)C(=O)O)cc1
Columns and labels:
[1] = target: T1, Rluc-ADGRG2-ΔGPS-β C614A (Mus musculus, UniProt Q8CJ12, C628A); experiment: BRET binding of FITC-VPM-p15; conditions: mutant C614A
T1 construct: the entire ECD (including the entire GPS motif) was removed (ADGRG2-ΔGPS-β); expressed in transfected cells; host or cells: HEK293
Method: (§1) The binding capacities of ADGRG2 WT or its mutants for VPM-p15 were determined by BRET assay, which has been used in previous studies ([27], [28], [29]). We fused the N terminus of ADGRG2 with a Rluc fragment and coupled FITC to the C terminus of VPM-p15 to facilitate BRET measurement. We stimulated the HEK293 cells transfected with Rluc-ADGRG2-ΔGPS-β wildtype (WT) or mutants by increasing the concentration of FITC-conjugated VPM-p15, and their binding abilities were determined by fitting the data with the saturation curves.
(§2) In the detection of binding capacities of ADGRG2 WT or its mutants for VPM-p15, HEK293 cells were transfected with Rluc-ADGRG2-ΔGPS-β or mutants. Transfected cells were stimulated by increasing the concentration of FITC-conjugated VPM-p15. Binding capacities were determined by BRET, EC50 values of ADGRG2 WT and its mutants for binding VPM-p15 were calculated by GraphPad, and data were normalized by EC50 of WT.

[2] = target: T2, Rluc-ADGRG2-ΔGPS-β F764A (Mus musculus, UniProt Q8CJ12, F778A); experiment: BRET binding of FITC-VPM-p15; conditions: mutant F764A
T2 construct: the entire ECD (including the entire GPS motif) was removed (ADGRG2-ΔGPS-β); expressed in transfected cells; host or cells: HEK293
Method: as §1, §2

[3] = target: T3, Rluc-ADGRG2-ΔGPS-β F838A (Mus musculus, UniProt Q8CJ12, F852A); experiment: BRET binding of FITC-VPM-p15; conditions: mutant F838A
T3 construct: expressed in transfected cells; host or cells: HEK293
Method: as §1, §2

[4] = target: T4, Rluc-ADGRG2-ΔGPS-β I844A (Mus musculus, UniProt Q8CJ12, I858A); experiment: BRET binding of FITC-VPM-p15; conditions: mutant I844A
T4 construct: expressed in transfected cells; host or cells: HEK293
Method: as §1, §2

[5] = target: T5, Rluc-ADGRG2-ΔGPS-β L683A (Mus musculus, UniProt Q8CJ12, L697A); experiment: BRET binding of FITC-VPM-p15; conditions: mutant L683A
T5 construct: the entire ECD (including the entire GPS motif) was removed (ADGRG2-ΔGPS-β); expressed in transfected cells; host or cells: HEK293
Method: as §1, §2

[6] = target: T6, Rluc-ADGRG2-ΔGPS-β N759A (Mus musculus, UniProt Q8CJ12, N773A); experiment: BRET binding of FITC-VPM-p15; conditions: mutant N759A
T6 construct: the entire ECD (including the entire GPS motif) was removed (ADGRG2-ΔGPS-β); expressed in transfected cells; host or cells: HEK293
Method: as §1, §2

[7] = target: T7, Rluc-ADGRG2-ΔGPS-β S661A (Mus musculus, UniProt Q8CJ12, S675A); experiment: BRET binding of FITC-VPM-p15; conditions: mutant S661A
T7 construct: the entire ECD (including the entire GPS motif) was removed (ADGRG2-ΔGPS-β); expressed in transfected cells; host or cells: HEK293
Method: as §1, §2

[8] = target: T8, Rluc-ADGRG2-ΔGPS-β V762A (Mus musculus, UniProt Q8CJ12, V776A); experiment: BRET binding of FITC-VPM-p15; conditions: mutant V762A
T8 construct: the entire ECD (including the entire GPS motif) was removed (ADGRG2-ΔGPS-β); expressed in transfected cells; host or cells: HEK293
Method: as §1, §2

[9] = target: T9, Rluc-ADGRG2-ΔGPS-β V774A (Mus musculus, UniProt Q8CJ12, V788A); experiment: BRET binding of FITC-VPM-p15; conditions: mutant V774A
T9 construct: expressed in transfected cells; host or cells: HEK293
Method: as §1, §2

[10] = target: T10, Rluc-ADGRG2-ΔGPS-β W662A (Mus musculus, UniProt Q8CJ12, W676A); experiment: BRET binding of FITC-VPM-p15; conditions: mutant W662A
T10 construct: the entire ECD (including the entire GPS motif) was removed (ADGRG2-ΔGPS-β); expressed in transfected cells; host or cells: HEK293
Method: as §1, §2

[11] = target: T11, Rluc-ADGRG2-ΔGPS-β WT (Mus musculus, UniProt Q8CJ12); experiment: BRET binding of FITC-VPM-p15; conditions: receptor WT
T11 construct: the entire ECD (including the entire GPS motif) was removed (ADGRG2-ΔGPS-β); expressed in transfected cells; host or cells: HEK293
Method: as §1, §2

[12] = target: T12, ADGRG2-ΔGPS-β (Mus musculus, UniProt Q8CJ12); experiment: GloSensor cAMP assay, HEK293 transfected with ADGRG2-ΔGPS-β; assay type: cell-based
T12 construct: the entire ECD (including the entire GPS motif) was removed (ADGRG2-ΔGPS-β); expressed in transfected cells; host or cells: HEK293
Source text: Wildtype ADGRG2 full-length (ADGRG2-FL) was cloned from mouse total cDNA libraries using the following primers: forward, […]; reverse, […], and then ADGRG2-FL, ADGRG2 C-terminal truncation mutant (ADGRG2-β), and ADGRG2-ΔGPS-β (the entire ECD of ADGRG2 was deleted) were subcloned into the pcDNA3.1 expression vector. The ADGRG2-ΔGPS-β mutants (T610A, Y611A, C614A, S661A, W662A, I663A, L665A, Y666A，N667A, F671A, L679A, L683A, I730A, V731A, F741A, F747A, W757A, I758A, N759A, S760A, V762A, F764A, Y765A, V768A, V769A, F772A, V774A, W824A, F826A, F828A, F829A, V834A, V836A, F838A, M839A, I844A, F845A) were generated using a QuikChange Mutagenesis Kit (Stratagene). All mutations were verified by DNA sequencing.
Human embryonic kidney 293 (HEK293) cells were maintained in Dulbecco’s modified Eagle’s medium supplemented with 10% fetal bovine serum, penicillin (100 IU/ml), and streptomycin (100 μg/ml) as described ([6], [38]). For receptor or other protein expression, plasmids carrying the desired genes were transfected into cells using Lipofectamine 2000 (Invitrogen).
The Glosensor cAMP assay was performed as described ([6], [39], [40]). HEK293 cells were transfected with the GloSensor plasmid and the desired expression plasmids in 24-well dishes. Twenty-four hours after transfection, the cells were plated on 96-well plates at a cell density of 20,000 cells/well. The cells were maintained in Dulbecco’s modified Eagle’s medium for another 24 h, washed with PBS, and then incubated with 100 μl of solution containing 10% fetal bovine serum, 2% (v/v) GloSensor cAMP reagent, and 88% CO2-independent medium in each well for 2 h. The cAMP signal was examined using a luminescence counter (Mithras LB 940).

[13] = Kd(mutated ADGRG2-ΔGPS-β)/Kd(WT)

T12 sequence (Q8CJ12 618-1009 limits assumed, stated change not applied): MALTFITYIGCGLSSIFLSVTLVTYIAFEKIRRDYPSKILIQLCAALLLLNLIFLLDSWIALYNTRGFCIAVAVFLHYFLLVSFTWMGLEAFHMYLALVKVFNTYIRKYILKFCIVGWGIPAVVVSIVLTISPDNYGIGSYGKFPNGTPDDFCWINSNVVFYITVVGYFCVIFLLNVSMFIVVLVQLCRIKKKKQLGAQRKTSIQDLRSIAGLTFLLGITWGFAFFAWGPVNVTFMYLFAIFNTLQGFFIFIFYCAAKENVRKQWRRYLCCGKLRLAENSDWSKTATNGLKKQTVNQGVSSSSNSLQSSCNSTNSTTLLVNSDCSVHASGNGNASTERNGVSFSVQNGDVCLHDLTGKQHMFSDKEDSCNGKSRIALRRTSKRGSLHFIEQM
T4 sequence (Q8CJ12 614-1009 I858A): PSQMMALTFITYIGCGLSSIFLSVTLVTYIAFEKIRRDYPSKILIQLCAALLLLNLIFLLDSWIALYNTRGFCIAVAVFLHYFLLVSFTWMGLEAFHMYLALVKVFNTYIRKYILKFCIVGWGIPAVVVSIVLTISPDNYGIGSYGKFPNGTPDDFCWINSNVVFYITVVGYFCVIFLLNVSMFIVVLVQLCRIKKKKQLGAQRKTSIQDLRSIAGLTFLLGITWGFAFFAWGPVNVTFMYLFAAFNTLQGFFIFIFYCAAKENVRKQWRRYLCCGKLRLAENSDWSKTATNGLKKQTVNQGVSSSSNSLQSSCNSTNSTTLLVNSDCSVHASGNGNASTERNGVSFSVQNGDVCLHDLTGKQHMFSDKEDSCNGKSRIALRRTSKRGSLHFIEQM
T7 sequence (Q8CJ12 618-1009 S675A limits assumed): as the sequence (Q8CJ12 618-1009 limits assumed, stated change not applied) above, with S58A counted along it
T9 sequence (Q8CJ12 614-1009 V788A): as the sequence (Q8CJ12 614-1009 I858A) above, with V175A, A245I counted along it
T10 sequence (Q8CJ12 618-1009 W676A limits assumed): as the sequence (Q8CJ12 618-1009 limits assumed, stated change not applied) above, with W59A counted along it
T8 sequence (Q8CJ12 618-1009 V776A limits assumed): as the sequence (Q8CJ12 618-1009 limits assumed, stated change not applied) above, with V159A counted along it
T3 sequence (Q8CJ12 614-1009 F852A): as the sequence (Q8CJ12 614-1009 I858A) above, with F239A, A245I counted along it
T1 sequence (Q8CJ12 618-1009 C628A limits assumed): as the sequence (Q8CJ12 618-1009 limits assumed, stated change not applied) above, with C11A counted along it
T6 sequence (Q8CJ12 618-1009 N773A limits assumed): as the sequence (Q8CJ12 618-1009 limits assumed, stated change not applied) above, with N156A counted along it
T5 sequence (Q8CJ12 618-1009 L697A limits assumed): as the sequence (Q8CJ12 618-1009 limits assumed, stated change not applied) above, with L80A counted along it
T2 sequence (Q8CJ12 618-1009 F778A limits assumed): as the sequence (Q8CJ12 618-1009 limits assumed, stated change not applied) above, with F161A counted along it
T11 sequence (Q8CJ12 618-1009 limits assumed, stated change not applied): as the sequence (Q8CJ12 618-1009 limits assumed, stated change not applied) above

Structure (SMILES): CC[C@H](C)[C@H](NC(=O)CNC(=O)[C@H](Cc1ccc(C)cc1)NC(=O)[C@H](CO)NC(=O)[C@@H](N)C(C)C)C(=O)N[C@@H](CC(C)C)C(=O)N[C@@H](CC(C)C)C(=O)N[C@@H](CC(=O)O)C(=O)N[C@@H](CC(C)C)C(=O)N[C@@H](CO)C(=O)N[C@@H](CCCNC(=N)N)C(=O)N[C@H](C(=O)N[C@@H](CO)C(=O)N[C@@H](CC(C)C)C(=O)N1CCC[C@H]1C(=O)N[C@@H](CCCCNC(=S)Nc1ccc2c(c1)C(=O)OC21c2ccc(O)cc2Oc2cc(O)ccc21)C(=O)O)[C@@H](C)O [FITC-VPM-p15] (H-VS[Phe(4-Me)]GILLDLSRTSLPK(FITC)-OH; N-terminus and C-terminus assumed)
Fmut [1, 13]: 1.382
Bmax ([1]; binding Bmax (BRET)): 0.7934±0.0241
Fmut [2, 13]: 1.183
Bmax ([2]; binding Bmax (BRET)): 0.814±0.039
Fmut [3, 13]: 0.819
Bmax ([3]; binding Bmax (BRET)): 0.793±0.022
Fmut [4, 13]: 1.640
Bmax ([4]; binding Bmax (BRET)): 0.729±0.093
Fmut [5, 13]: 1.240
Bmax ([5]; binding Bmax (BRET)): 0.7887±0.022
Fmut [6, 13]: 1.655
Bmax ([6]; binding Bmax (BRET)): 0.713±0.011
Fmut [7, 13]: 0.832
Bmax ([7]; binding Bmax (BRET)): 0.6895±0.021
Fmut [8, 13]: 1.268
Bmax ([8]; binding Bmax (BRET)): 0.798±0.021
Fmut [9, 13]: 1.149
Bmax ([9]; binding Bmax (BRET)): 0.820±0.032
Fmut [10, 13]: 1.128
Bmax ([10]; binding Bmax (BRET)): 0.808±0.047
Fmut [11, 13]: 1.000
Bmax ([11]; binding Bmax (BRET)): 0.809±0.015

EC50 ([12]; cAMP Glosensor, ADGRG2-ΔGPS-β, HEK293): 1.41 ± 0.16 µM
EC50 ([12]; receptor WT (Table S4), HEK293, cAMP Glosensor): 1.06 µM
Structure (SMILES): CC[C@H](C)[C@H](NC(=O)CNC(=O)[C@H](Cc1ccc(C)cc1)NC(=O)[C@H](CO)NC(=O)[C@@H](N)C(C)C)C(=O)N[C@@H](CC(C)C)C(=O)N[C@@H](CC(C)C)C(=O)N[C@@H](CC(=O)O)C(=O)N[C@@H](CC(C)C)C(=O)N[C@@H](CO)C(=O)N[C@@H](CCCNC(=N)N)C(=O)N[C@H](C(=O)N[C@@H](CO)C(=O)N[C@@H](CC(C)C)C(=O)N1CCC[C@H]1C(=O)O)[C@@H](C)O [VPM-p15] (H-VS[Phe(4-Me)]GILLDLSRTSLP-OH)
EC50 compared with wildtype p15 or other mutants ([12]; concentration-response curves, cAMP Glosensor, ADGRG2-ΔGPS-β): significant lower EC50 than other mutants

Source: PMC7948503, “Optimization of a peptide ligand for the adhesion GPCR ADGRG2 provides a potent tool to explore receptor biology” (The Journal of Biological Chemistry, 2020)
